Test results from patent EP1137645B1, “ALPHA-METHYLBENZYL-CONTAINING THIOUREA INHIBITORS OF HERPES VIRUSES CONTAINING A […] GROUP” (Wyeth, priority 1998, dated 2000).
In brackets after ≈: the same amount, converted by molar mass. Read-outs that look alike come from different tables or passages of the source.

Key:
[1] = tested on: VZV strain Ellen; test: VZV antiviral (ELISA) assay; format: cell-based; conditions: for inhibition at 10 µg/mL: read-out: % inhibition 10 ug/ml VZV
Summary of the method: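 HFF cells infected with VZV Ellen at multiplicity below 0.1 overnight, then mixed infected/uninfected cells seeded with compound in DMEM/2% FBS and incubated three days at 37°C, 5% CO2.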

[2] = tested on: HSV- I; test: HSV antiviral (ELISA) assay; format: cell-based; conditions: read-out: IC50 (ug/ml) HSV
Summary of the method: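 IC50 from fluorescence versus untreated control in a cell ELISA: anti-glycoprotein D antibody, β-galactosidase-conjugated secondary, 4-methyl umbelliferone read at 365/450 nm. Vero cells (2% FBS DMEM) received compound 30 min pre-infection with HSV-1 at MOI 0.006, fixed ~24 h post-infection.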

[3] = tested on: HCMV recombinant mutant virus whose genome contains the prokaryotic beta-glucuronidase gene; test: microbe, parasite or virus in culture; format: cell-based, human cytomegalovirus; conditions: Human betaherpesvirus 5, Fibroblast
Summary of the method: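 Antiviral IC50 estimated from reduced reporter activity across compound amounts: lysates prepared 96 h after infection were tested with p-nitrophenyl- or methylumbelliferyl-glucuronide. Cells were human foreskin fibroblasts, infected alongside inhibitor with HCMV (e.g. RV145) expressing viral promoter-driven beta-glucuronidase.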

[4] = Human alphaherpesvirus 3, HFF, read-out: IC50 (ug/ml) VZV, VZV strain Ellen, HFF cells, ELISA
[5] = read-out: IC50 ug/ml HCMV, HCMV, human foreskin fibroblasts
[6] = Human alphaherpesvirus 3, VZV strain Ellen, HFF cells, ELISA, read-out: IC50 (ug/ml) VZV
[7] = Human alphaherpesvirus 3, HFF, read-out: IC50 (ug/ml) VZV

| Structure (SMILES) | IC50 [1, 4] [µg/mL] | IC50 ([2]; Vero) [µg/mL] | IC50 [3, 5] [µg/mL] | IC50 [1, 6] [µg/mL] | IC50 ([2]; HSV- I, Vero cells, ELISA) [µg/mL] | IC50 ([3]; read-out: IC50 ug/ml HCMV) [µg/mL] | inhibition at 10 µg/mL ([1]; Human alphaherpesvirus 3, HFF) [%] | IC50 [1, 7] [µg/mL] |
| --- | --- | --- | --- | --- | --- | --- | --- | --- |
| Cc1ccc(C(C)NC(=S)Nc2ccc(NC(=O)c3ccccc3F)cc2)cc1 (stereo not drawn) [Example 782, 2-Fluoro-N-{4-[3-(1-p-tolyl-ethyl)-thioureido]-phenyl}-benzamide] | 3 (≈ 7.36 µM) | > 10 | 0.9 (≈ 2.21 µM) |  |  |  |  |  |
| CC(NC(=S)Nc1ccc(NC(=O)c2ccccc2F)cc1)c1ccccc1Br (stereo not drawn) [Example 783, N-(4-{3-[1-(2-Bromo-phenyl)-ethyl]-thioureido}-phenyl)-2-fluoro-benzamide] | 0.3 (≈ 0.635 µM) | > 10 | 1.1 (≈ 2.33 µM) |  |  |  |  |  |
| CC(NC(=S)Nc1ccc(NC(=O)c2ccccc2F)cc1)c1ccccc1Cl (stereo not drawn) [Example 784, N-(4-{3-[1-(2-Chloro-phenyl)-ethyl]-thioureido}-phenyl)-2-fluoro-benzamide] | 0.7 (≈ 1.64 µM) | > 10 | 1.1 (≈ 2.57 µM) |  |  |  |  |  |
| CC(NC(=S)Nc1ccc(NC(=O)c2ccccc2F)cc1)c1ccccc1C(F)(F)F (stereo not drawn) [Example 785, 2-Fluoro-N-(4-{3-[1-(2-trifluoromethyl-phenyl)-ethyl]-thioureido}-phenyl)-benzamide] |  |  |  | > 7.5 | > 10 | > 2.2 |  |  |
| CC(NC(=S)Nc1ccc(NC(=O)c2ccccc2F)cc1)c1cccc(C(F)(F)F)c1 (stereo not drawn) [Example 786, 2-Fluoro-N-(4-{3-[1-(3-trifluoromethyl-phenyl)-ethyl]-thioureido}-phenyl)-benzamide] |  |  |  | > 7.5 | > 10 | 1.5 (≈ 3.25 µM) |  |  |
| CC(NC(=S)Nc1ccc(NC(=O)c2ccccc2F)cc1)c1ccc(C(F)(F)F)cc1 (stereo not drawn) [Example 787, 2-Fluoro-N-(4-{3-[1-(4-trifluoromethyl-phenyl)-ethyl]-thioureido}-phenyl)-benzamide] |  |  |  | > 7.5 | > 10 | 1.2 (≈ 2.6 µM) |  |  |
| COc1ccccc1C(C)NC(=S)Nc1ccc(NC(=O)c2ccccc2F)cc1 (stereo not drawn) [Example 788, 2-Fluoro-N-(4-{3-[1-(2-methoxy-phenyl)-ethyl]-thioureido}-phenyl)-benzamide] | > 7.5 | > 10 | 1.8 (≈ 4.25 µM) |  |  |  |  |  |
| COc1cccc(C(C)NC(=S)Nc2ccc(NC(=O)c3ccccc3F)cc2)c1 (stereo not drawn) [Example 789, 2-Fluoro-N-(4-{3-[1-(3-methoxy-phenyl)-ethyl]-thioureido}-phenyl)-benzamide] | 1.5 (≈ 3.54 µM) | > 10 | > 2.2 |  |  |  |  |  |
| CC(C)C(NC(=S)Nc1ccc(NC(=O)c2ccccc2F)cc1)c1ccc(F)cc1 (stereo not drawn) [Example 790, 2-Fluoro-N-(4-{3-[1-(4-fluoro-phenyl)-2-methyl-propyl]-thioureido}-phenyl)-benzamide] | 2.5 (≈ 5.69 µM) | > 10 | 1.5 (≈ 3.41 µM) |  |  |  |  |  |
| CC(NC(=S)Nc1ccc(NC(=O)c2ccccc2F)cc1)c1cccc(C#N)c1 (stereo not drawn) [Example 791, N-(4-{3-[1-(3-Cyano-phenyl)-ethyl]-thioureido}-phenyl)-2-fluoro-benzamide] |  |  |  | 7 (≈ 16.7 µM) | > 10 | 7.3 (≈ 17.4 µM) |  |  |
| CC(NC(=S)Nc1ccc(NC(=O)c2ccccc2F)cc1)c1ccc(C#N)cc1 (stereo not drawn) [Example 792, N-(4-{3-[1-(4-Cyano-phenyl)-ethyl]-thioureido}-phenyl)-2-fluoro-benzamide] |  |  |  | > 7.5 | > 10 | 5 (≈ 11.9 µM) |  |  |
| CC(NC(=S)Nc1ccc(NC(=O)c2ccccc2F)cc1)c1ccc(N(C)C)cc1 (stereo not drawn) [Example 793, N-(4-{3-[1-(4-Dimethylamino-phenyl)-ethyl]-thioureido}-phenyl)-2-fluoro-benzamide] | 3.1 (≈ 7.1 µM) | 9 (≈ 20.6 µM) | 3.2 (≈ 7.33 µM) |  |  |  |  |  |
| CC(NC(=S)Nc1ccc(NC(=O)c2ccccc2F)cc1)c1cccc(N(C)C)c1 (stereo not drawn) [Example 794, N-(4-{3-[1-(3-Dimethylamino-phenyl)-ethyl]-thioureido}-phenyl)-2-fluoro-benzamide] | 0.4 (≈ 0.916 µM) | 7 (≈ 16 µM) | 6.2 (≈ 14.2 µM) |  |  |  |  |  |
| CC(NC(=S)Nc1ccc(NC(=O)c2ccccc2Br)cc1)c1ccc(F)cc1 (stereo not drawn) [Example 795, 2-Bromo-N-(4-{3-[1-(4-fluoro-phenyl)-ethyl]-thioureido}-pbenyl)-benzamide] | > 7.5 | 8.6 (≈ 18.2 µM) | 4.1 (≈ 8.68 µM) |  |  |  |  |  |
| O=C(Nc1ccc(NC(=S)NC(CO)c2ccccc2)cc1)c1ccccc1F (stereo not drawn) [Example 797, 2-Fluoro-N-{4-[3-(2-hydroxy-1-phenyl-ethyl)-thioureido]-phenyl}-benzamide] |  |  |  | 1.7 (≈ 4.15 µM) | > 10 | > 10 |  |  |
| CC(NC(=S)Nc1ccc(NC(=O)c2ccccc2F)cc1)c1ccc2ccccc2c1 (stereo not drawn) [Example 799, 2-Fluoro-N-{4-[3-(1-naphthalen-2-yl-ethyl)-thioureido]-phenyl}-benzamide] | > 7.5 | > 10 | 1.7 (≈ 3.83 µM) |  |  |  |  |  |
| CC(NC(=S)Nc1ccc(NC(=O)c2cccc(F)c2)cc1)c1ccc(F)cc1 (stereo not drawn) [Example 800, 3-Fluoro-N-(4-{3-[1-(4-fluoro-phenyl)-ethyl]-thioureido}-phenyl)-benzamide] |  |  |  | > 7.5 | > 10 | > 10 |  |  |
| CC(NC(=S)Nc1ccc(NC(=O)c2ccc(F)cc2)cc1)c1ccc(F)cc1 (stereo not drawn) [Example 801, 4-Fluoro-N-(4-{3-[1-(4-fluoro-phenyl)-ethyl]-thioureido}-phenyl)-benzamide] |  |  |  | > 7.5 | > 10 | > 10 |  |  |
| CCOc1ccc(NC(=S)Nc2ccc(NC(=O)c3ccccc3F)cc2)cc1Cl [Example 806, N-{4-[3-(3-Chloro-4-ethoxy-phenyl)-thioureido]-phenyl}-2-fluoro-benzamide] | > 7.5 | > 10 | > 10 |  |  |  |  |  |
| CCCOc1ccc(NC(=S)Nc2ccc(NC(=O)c3ccccc3F)cc2)cc1Cl [Example 807, N-{4-[3-(3-Chloro-4-propoxy-phenyl)-thioureido]-phenyl}-2-fluoro-benzamide] | 0.9 (≈ 1.97 µM) | > 10 | 10 (≈ 21.8 µM) |  |  |  |  |  |
| CC(C)Oc1ccc(NC(=S)Nc2ccc(NC(=O)c3ccccc3F)cc2)cc1Cl [Example 808, N-{4-[3-(3-Chloro-4-isopropoxy-phenyl)-thioureido]-phenyl}-2-fluoro-benzamide] | > 7.5 | > 10 | > 10 |  |  |  |  |  |
| CCCCOc1ccc(NC(=S)Nc2ccc(NC(=O)c3ccccc3F)cc2)cc1Cl [Example 809, N-{4-[3-(4-Butoxy-3-chloro-phenyl)-thioureido]-phenyl}-2-fluoro-benzamide] | > 7.5 | > 10 | > 10 |  |  |  |  |  |
| COc1ccc(NC(=S)Nc2ccc(NC(=O)c3ccccc3F)cc2)cc1I [Example 810, 2-Fluoro-N-{4-[3-(3-iodo-4-methoxy-phenyl)-thioureido]-phenyl}-benzamide] |  |  |  | > 7.5 | 1.1 (≈ 2.11 µM) | 2.7 (≈ 5.18 µM) |  |  |
| COc1ccc(NC(=S)Nc2ccc(NC(=O)c3ccccc3F)cc2)cc1Br [Example 811, N-{4-[3-(3-Bromo-4-methoxy-phenyl)-thioureido]-phenyl}-2-fluoro-benzamide] | > 7.5 | 0.8 (≈ 1.69 µM) | 3.1 (≈ 6.54 µM) |  |  |  |  |  |
| COc1ccc(NC(=S)Nc2ccc(NC(=O)c3ccccc3)cc2)cc1Cl [Example 817, N-{4-[3-(3-Chloro-4-methoxy-phenyl)-thioureido]-phenyl}-benzamide] |  |  | 2 (≈ 4.86 µM) |  | 1 (≈ 2.43 µM) |  | 66 | 12 (≈ 29.1 µM) |
| COc1ccc(NC(=S)Nc2ccc(NC(=O)c3ccccc3OC)cc2)cc1Cl [Example 818, N-{4-[3-(3-Chloro-4-methoxy-phenyl)-thioureido]-phenyl}-2-methoxy-benzamide] |  |  | 4 (≈ 9.05 µM) |  | 1.2 (≈ 2.72 µM) |  | 32 | > 10 |
| COc1cccc(C(=O)Nc2ccc(NC(=S)Nc3ccc(OC)c(Cl)c3)cc2)c1 [Example 819, N-{4-[3-(3-Chloro-4-methoxy-phenyl)-thioureido]-phenyl}-3-methoxy-benzamide] |  |  | 4 (≈ 9.05 µM) |  | 6 (≈ 13.6 µM) |  | 93 | 2.5 (≈ 5.66 µM) |
